Test results as given in paper doi:10.1101/2021.04.08.439011v1 (biorxiv, 2021).

How the values were obtained:
ULK2 = ULK2 (Homo sapiens, UniProt Q8IYT8); details: 0.1 µM; binder
CSNK1E = CSNK1E (Homo sapiens, UniProt P49674); details: 0.1 µM; binder
CDK19 = CDK19 (Homo sapiens, UniProt Q9BWU1); details: 0.1 µM; binder
TNNI3K = TNNI3K (Homo sapiens, UniProt Q59H18); details: 0.1 µM; binder
PIP5K1A = PIP5K1A (Homo sapiens, UniProt Q99755); details: 0.1 µM; binder
PIP4K2C = PIP4K2C (Homo sapiens, UniProt Q8TBX8); details: 0.1 µM; binder
MRCKA = MRCKA (Homo sapiens, UniProt Q5VT25); details: 0.1 µM; binder
SGK = SGK (Homo sapiens, UniProt O00141); details: 0.1 µM; binder
YSK1 = YSK1 (Homo sapiens, UniProt O00506); details: 0.1 µM; binder
KIT(V559D,V654A) = KIT(V559D,V654A) (Homo sapiens, UniProt P10721, V559D/V654A); details: 0.1 µM; binder
ULK1 = ULK1 (Homo sapiens, UniProt O75385); details: 0.1 µM; binder
WNK3 = WNK3 (Homo sapiens, UniProt Q9BYP7); details: 0.1 µM; binder
ABL1(Y253F) = ABL1(Y253F) (Homo sapiens, UniProt P00519, Y253F); details: phosphorylated; 0.1 µM; binder
CLK4 = CLK4 (Homo sapiens, UniProt Q9HAZ1); details: 0.1 µM; binder
MYLK4 = MYLK4 (Homo sapiens, UniProt Q86YV6); details: 0.1 µM; binder
p38-gamma = p38-gamma (Homo sapiens, UniProt P53778); details: 0.1 µM; binder
EGFR(L858R) = EGFR(L858R) (Homo sapiens, UniProt P00533, L858R); details: 0.1 µM; binder
EPHA1 = EPHA1 (Homo sapiens, UniProt P21709); details: 0.1 µM; binder
HUNK = HUNK (Homo sapiens, UniProt P57058); details: 0.1 µM; binder
VRK2 = VRK2 (Homo sapiens, UniProt Q86Y07); details: 0.1 µM; binder
PLK2 = PLK2 (Homo sapiens, UniProt Q9NYY3); details: 0.1 µM; binder
CHEK2 = CHEK2 (Homo sapiens, UniProt O96017); details: 0.1 µM; binder
AKT3 = AKT3 (Homo sapiens, UniProt Q9Y243); details: 0.1 µM; binder
RAF1 = RAF1 (Homo sapiens, UniProt P04049); details: 0.1 µM; binder
EPHA6 = EPHA6 (Homo sapiens, UniProt Q9UF33); details: 0.1 µM; binder
MEK4 = MEK4 (Homo sapiens, UniProt P45985); details: 0.1 µM; binder
GRK3 = GRK3 (Homo sapiens, UniProt P35626); details: 0.1 µM; binder
SRMS = SRMS (Homo sapiens, UniProt Q9H3Y6); details: 0.1 µM; binder
TSSK1B = TSSK1B (Homo sapiens, UniProt Q9BXA7); details: 0.1 µM; binder
BMPR1B = BMPR1B (Homo sapiens, UniProt O00238); details: 0.1 µM; binder
ZAK = ZAK (Homo sapiens, UniProt Q9NYL2); details: 0.1 µM; binder

Chain of MEK4 (P45985 whole entry): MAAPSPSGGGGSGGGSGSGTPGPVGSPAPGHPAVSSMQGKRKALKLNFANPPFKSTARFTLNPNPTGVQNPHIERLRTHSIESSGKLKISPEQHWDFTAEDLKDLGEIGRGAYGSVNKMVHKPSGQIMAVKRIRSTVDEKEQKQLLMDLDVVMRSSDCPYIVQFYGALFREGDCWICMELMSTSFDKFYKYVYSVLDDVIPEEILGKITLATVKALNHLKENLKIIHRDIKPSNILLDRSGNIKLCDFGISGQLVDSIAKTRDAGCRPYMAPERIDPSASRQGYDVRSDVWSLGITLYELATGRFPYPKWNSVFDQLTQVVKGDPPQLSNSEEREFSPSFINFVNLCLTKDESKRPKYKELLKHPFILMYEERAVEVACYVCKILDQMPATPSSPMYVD
Chain of TSSK1B (Q9BXA7 whole entry): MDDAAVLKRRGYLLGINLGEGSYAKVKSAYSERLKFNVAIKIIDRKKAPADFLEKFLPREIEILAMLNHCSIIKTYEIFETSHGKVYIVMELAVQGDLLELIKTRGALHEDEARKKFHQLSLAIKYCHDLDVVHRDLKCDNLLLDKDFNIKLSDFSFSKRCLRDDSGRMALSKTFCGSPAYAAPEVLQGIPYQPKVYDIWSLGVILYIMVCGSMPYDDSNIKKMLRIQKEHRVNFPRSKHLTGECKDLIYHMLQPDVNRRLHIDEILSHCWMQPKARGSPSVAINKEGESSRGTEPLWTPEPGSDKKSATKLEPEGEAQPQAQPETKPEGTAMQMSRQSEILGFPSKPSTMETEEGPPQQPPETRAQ
Chain of ULK1 (O75385 whole entry): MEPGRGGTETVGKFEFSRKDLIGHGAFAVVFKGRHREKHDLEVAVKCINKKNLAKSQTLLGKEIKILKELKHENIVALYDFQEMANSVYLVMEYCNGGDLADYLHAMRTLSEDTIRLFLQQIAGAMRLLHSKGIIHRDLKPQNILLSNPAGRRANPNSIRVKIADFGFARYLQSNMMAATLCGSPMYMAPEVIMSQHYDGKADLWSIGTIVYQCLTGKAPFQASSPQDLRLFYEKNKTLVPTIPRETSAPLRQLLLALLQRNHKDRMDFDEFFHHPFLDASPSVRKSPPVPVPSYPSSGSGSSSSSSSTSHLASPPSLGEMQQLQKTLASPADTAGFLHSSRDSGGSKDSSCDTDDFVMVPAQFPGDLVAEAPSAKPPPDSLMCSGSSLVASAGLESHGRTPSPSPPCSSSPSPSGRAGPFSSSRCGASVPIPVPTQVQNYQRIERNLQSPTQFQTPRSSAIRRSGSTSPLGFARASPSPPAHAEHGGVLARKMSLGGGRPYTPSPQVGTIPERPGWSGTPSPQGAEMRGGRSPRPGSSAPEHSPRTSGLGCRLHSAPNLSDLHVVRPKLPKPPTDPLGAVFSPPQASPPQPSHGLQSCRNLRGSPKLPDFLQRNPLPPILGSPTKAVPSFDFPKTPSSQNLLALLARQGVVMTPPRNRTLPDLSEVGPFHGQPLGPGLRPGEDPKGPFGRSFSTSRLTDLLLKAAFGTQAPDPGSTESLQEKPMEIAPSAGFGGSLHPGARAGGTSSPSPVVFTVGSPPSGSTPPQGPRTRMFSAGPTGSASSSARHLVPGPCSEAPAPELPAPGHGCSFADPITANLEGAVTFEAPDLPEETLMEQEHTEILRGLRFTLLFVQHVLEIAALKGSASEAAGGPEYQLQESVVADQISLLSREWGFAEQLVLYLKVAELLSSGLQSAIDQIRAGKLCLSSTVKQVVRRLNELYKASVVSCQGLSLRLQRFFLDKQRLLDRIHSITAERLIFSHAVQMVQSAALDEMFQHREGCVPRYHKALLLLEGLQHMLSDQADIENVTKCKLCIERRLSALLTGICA
Chain of TNNI3K (Q59H18 whole entry): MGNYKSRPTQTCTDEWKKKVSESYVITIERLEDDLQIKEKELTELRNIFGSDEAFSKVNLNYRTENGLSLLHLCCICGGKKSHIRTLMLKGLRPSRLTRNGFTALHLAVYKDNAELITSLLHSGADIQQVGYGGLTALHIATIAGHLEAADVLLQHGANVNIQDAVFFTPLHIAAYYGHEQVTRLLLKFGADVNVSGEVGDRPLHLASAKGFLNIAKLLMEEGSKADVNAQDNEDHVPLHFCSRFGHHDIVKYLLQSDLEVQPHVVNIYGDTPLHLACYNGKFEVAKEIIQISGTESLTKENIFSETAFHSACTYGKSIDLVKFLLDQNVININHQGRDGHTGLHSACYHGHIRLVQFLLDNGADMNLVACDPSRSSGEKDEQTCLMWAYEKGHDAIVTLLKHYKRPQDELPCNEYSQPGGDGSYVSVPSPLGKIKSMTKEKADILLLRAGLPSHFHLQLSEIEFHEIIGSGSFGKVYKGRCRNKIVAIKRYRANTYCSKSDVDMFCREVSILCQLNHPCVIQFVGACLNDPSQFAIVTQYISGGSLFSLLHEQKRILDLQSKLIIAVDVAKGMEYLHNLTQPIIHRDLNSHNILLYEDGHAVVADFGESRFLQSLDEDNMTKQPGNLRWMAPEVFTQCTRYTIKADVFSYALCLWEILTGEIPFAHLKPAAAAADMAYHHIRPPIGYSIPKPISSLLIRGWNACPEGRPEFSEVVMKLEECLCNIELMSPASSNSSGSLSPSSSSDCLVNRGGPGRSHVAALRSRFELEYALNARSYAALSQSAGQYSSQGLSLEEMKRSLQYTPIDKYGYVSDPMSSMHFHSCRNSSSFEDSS
Chain of SRMS (Q9H3Y6 whole entry): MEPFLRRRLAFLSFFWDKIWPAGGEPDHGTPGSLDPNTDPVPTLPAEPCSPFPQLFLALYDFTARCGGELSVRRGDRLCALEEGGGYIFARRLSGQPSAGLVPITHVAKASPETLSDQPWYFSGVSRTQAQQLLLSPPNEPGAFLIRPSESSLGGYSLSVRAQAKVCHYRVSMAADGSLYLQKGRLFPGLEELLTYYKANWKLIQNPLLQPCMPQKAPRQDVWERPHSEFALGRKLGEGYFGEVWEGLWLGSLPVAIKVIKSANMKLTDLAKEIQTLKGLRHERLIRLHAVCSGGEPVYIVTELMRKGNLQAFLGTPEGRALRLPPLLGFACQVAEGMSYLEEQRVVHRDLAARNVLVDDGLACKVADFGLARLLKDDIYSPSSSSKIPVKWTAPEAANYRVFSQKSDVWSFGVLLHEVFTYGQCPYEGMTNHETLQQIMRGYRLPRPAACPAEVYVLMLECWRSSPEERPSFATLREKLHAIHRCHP
Chain of MYLK4 (Q86YV6 whole entry): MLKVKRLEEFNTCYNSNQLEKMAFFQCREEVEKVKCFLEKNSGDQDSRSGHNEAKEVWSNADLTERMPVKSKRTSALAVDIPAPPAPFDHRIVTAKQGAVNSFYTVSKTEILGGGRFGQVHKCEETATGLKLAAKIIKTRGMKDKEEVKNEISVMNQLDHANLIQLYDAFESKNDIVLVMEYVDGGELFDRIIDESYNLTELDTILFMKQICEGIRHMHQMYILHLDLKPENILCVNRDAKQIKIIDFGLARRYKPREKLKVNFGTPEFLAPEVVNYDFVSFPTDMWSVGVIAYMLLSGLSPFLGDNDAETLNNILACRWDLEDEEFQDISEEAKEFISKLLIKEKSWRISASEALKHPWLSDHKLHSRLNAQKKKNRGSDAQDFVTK
Chain of GRK3 (P35626 whole entry): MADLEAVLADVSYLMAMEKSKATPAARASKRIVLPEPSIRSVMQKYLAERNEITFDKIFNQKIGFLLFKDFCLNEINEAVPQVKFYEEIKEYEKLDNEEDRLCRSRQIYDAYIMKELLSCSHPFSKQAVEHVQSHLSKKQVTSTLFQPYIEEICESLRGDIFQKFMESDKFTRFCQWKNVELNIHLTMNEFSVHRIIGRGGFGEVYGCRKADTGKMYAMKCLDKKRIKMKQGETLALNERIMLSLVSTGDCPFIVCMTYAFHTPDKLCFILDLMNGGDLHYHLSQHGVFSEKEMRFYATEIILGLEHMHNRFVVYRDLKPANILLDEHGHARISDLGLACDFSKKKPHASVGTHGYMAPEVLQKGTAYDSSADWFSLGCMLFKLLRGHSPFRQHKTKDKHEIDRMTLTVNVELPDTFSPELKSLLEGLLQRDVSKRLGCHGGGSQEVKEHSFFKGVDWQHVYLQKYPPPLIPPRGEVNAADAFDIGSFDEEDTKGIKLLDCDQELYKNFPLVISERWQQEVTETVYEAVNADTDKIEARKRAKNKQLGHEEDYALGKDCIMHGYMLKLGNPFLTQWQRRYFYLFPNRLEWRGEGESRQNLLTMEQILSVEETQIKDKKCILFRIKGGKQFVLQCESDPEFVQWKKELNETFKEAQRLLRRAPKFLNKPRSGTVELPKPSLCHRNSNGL
Chain of BMPR1B (O00238 whole entry): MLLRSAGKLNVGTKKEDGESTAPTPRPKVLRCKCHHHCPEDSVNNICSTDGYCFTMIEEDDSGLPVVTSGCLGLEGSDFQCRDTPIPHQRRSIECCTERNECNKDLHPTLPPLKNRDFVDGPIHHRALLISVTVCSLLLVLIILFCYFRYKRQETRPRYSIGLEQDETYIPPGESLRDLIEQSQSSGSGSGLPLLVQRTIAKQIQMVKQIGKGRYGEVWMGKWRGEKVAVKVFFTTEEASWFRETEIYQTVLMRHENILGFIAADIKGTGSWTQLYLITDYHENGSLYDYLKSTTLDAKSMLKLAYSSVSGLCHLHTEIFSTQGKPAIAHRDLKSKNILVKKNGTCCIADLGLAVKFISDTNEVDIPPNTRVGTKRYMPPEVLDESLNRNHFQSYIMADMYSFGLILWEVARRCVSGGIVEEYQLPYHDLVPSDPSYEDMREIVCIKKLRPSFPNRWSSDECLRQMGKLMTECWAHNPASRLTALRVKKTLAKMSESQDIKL

## CNc1ncc2cc(-c3ccc(-c4cccc(C)n4)cc3Cl)c(=O)n(C[C@H]3OC[C@H](N)CO3)c2n1 [compound 6, G-5555]
ULK2
  Percent Control: 100%
CSNK1E
  Percent Control: 100%
CDK19
  Percent Control: 87%
TNNI3K
  Percent Control: 100%
PIP5K1A
  Percent Control: 48%
PIP4K2C
  Percent Control: 79%
MRCKA
  Percent Control: 100%
SGK
  Percent Control: 99%
YSK1
  Percent Control: 40%
KIT(V559D,V654A)
  Percent Control: 77%
ULK1
  Percent Control: 100%
WNK3
  Percent Control: 100%
ABL1(Y253F)
  Percent Control: 97%
CLK4
  Percent Control: 97%
MYLK4
  Percent Control: 100%
p38-gamma
  Percent Control: 100%
EGFR(L858R)
  Percent Control: 100%
EPHA1
  Percent Control: 64%
HUNK
  Percent Control: 100%
VRK2
  Percent Control: 94%
PLK2
  Percent Control: 75%
CHEK2
  Percent Control: 100%
AKT3
  Percent Control: 95%
RAF1
  Percent Control: 100%
EPHA6
  Percent Control: 100%
MEK4
  Percent Control: 49%
GRK3
  Percent Control: 83%
SRMS
  Percent Control: 99%
TSSK1B
  Percent Control: 98%
BMPR1B
  Percent Control: 95%
ZAK
  Percent Control: 97%
